This is an account of results in article PMC8722715 (Frontiers in Cell and Developmental Biology, 2021).

For assay [1], the target named is T1, hNaV1.6 channel (Homo sapiens, UniProt Q9UQD0).
T1 construct: expressed in transfected cells
The assay is described as follows: Automated patch-clamp block of hNaV1.6 peak Na+ current in HEK-293 cells. The format is cell-based. The conditions noted are these: for IC50: HEK-293 cells stably expressing hNaV1.6, SyncroPatch 384 PE whole-cell, holding -100 mV, 0 mV test pulse 50 ms every 5 s, room temperature 18-22°C, 0.3% BSA, steady state or end of 15-min application, mean, S.E.M. and n cells; for hNaV1.6 IC50 versus WT: ratio of analogue mean IC50 to HwTx-IV WT mean IC50 on hNaV1.6. In a few lines:
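Whole-cell automated patch clamp at −100 mV holding, room temperature (18–22°C), CsF-based internal, 0.3% BSA in external solution; 50 ms steps to −10 or 0 mV every 5 s. Percent peak-current inhibition taken at steady-state block or after 15 min application, used for dose-response curves.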
(The patch-clamp technique gives a direct electrical read-out from membranes.)

Assay [2] deals with T2, hNaV1.7 channel (Homo sapiens, UniProt Q15858).
T2 construct: expressed in transfected cells
The assay is described as follows: Automated patch-clamp block of hNaV1.7 peak Na+ current in CHO cells. The format is cell-based. The conditions noted are these: for IC50: CHO cells stably expressing hNaV1.7, SyncroPatch 384 PE whole-cell, holding -100 mV, -10 mV test pulse 50 ms every 5 s, room temperature 18-22°C, 0.3% BSA, steady state or end of 15-min application, mean, S.E.M. and n cells; for hNaV1.7 IC50 versus WT: ratio of analogue mean IC50 to HwTx-IV WT mean IC50 on hNaV1.7. Summed up: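 Automated whole-cell patch clamp on CHO cells stably expressing hNaV1.7, held at −100 mV at 18–22°C. Peak current evoked by 50 ms steps to −10 or 0 mV every 5 s; HwTx-IV analogues applied in extracellular solution with 0.3% BSA. Percent inhibition taken at steady-state block or after 15 min application.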

T1 sequence (Q9UQD0 whole entry): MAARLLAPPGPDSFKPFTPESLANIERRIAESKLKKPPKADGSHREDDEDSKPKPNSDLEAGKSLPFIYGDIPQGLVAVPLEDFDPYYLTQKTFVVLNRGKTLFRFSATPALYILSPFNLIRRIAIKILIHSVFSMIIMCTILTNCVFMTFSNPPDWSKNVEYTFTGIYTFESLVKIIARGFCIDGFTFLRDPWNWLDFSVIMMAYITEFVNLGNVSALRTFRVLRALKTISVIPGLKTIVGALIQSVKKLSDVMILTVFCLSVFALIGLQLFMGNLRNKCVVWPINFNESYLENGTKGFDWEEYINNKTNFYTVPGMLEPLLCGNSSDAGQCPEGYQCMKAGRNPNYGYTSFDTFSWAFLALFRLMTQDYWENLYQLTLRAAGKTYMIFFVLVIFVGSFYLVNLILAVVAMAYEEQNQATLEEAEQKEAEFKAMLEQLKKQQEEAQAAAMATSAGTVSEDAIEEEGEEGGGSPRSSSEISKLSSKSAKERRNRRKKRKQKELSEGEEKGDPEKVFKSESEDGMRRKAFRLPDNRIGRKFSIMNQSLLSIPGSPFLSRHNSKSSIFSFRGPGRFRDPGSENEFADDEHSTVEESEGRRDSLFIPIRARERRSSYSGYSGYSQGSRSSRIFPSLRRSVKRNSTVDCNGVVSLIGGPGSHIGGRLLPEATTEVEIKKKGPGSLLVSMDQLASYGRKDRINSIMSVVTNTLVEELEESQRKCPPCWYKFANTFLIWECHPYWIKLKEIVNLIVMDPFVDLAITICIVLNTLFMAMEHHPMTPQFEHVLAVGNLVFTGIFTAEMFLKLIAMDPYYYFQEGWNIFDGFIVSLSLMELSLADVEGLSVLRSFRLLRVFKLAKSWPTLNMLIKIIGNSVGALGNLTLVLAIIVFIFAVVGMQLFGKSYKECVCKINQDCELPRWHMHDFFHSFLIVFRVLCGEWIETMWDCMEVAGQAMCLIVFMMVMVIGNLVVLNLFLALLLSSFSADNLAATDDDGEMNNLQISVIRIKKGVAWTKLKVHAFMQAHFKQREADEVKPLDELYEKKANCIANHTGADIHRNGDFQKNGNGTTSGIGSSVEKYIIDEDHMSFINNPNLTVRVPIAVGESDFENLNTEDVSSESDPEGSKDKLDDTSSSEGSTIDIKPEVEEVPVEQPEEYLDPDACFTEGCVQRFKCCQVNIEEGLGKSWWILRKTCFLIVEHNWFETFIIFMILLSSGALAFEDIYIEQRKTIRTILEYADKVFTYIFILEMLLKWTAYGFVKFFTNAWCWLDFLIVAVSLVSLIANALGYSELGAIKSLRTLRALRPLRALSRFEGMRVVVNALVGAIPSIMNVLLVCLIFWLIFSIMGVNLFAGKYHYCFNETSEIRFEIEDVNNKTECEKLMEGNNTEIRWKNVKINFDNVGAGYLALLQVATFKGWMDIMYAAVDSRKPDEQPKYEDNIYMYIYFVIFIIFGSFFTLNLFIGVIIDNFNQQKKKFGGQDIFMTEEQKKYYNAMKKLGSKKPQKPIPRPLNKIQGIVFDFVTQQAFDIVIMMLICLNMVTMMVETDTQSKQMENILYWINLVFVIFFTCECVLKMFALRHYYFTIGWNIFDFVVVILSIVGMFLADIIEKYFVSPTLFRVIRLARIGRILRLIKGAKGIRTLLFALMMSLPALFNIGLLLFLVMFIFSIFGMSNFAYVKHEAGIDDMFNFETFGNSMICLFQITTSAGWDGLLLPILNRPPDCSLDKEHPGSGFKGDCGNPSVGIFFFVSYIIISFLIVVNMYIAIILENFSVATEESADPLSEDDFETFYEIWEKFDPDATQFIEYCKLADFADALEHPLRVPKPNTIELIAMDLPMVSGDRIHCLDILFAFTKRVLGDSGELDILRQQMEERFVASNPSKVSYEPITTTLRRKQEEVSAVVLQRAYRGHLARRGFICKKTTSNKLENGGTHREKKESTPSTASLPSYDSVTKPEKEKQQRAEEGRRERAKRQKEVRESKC
T2 sequence (Q15858 whole entry): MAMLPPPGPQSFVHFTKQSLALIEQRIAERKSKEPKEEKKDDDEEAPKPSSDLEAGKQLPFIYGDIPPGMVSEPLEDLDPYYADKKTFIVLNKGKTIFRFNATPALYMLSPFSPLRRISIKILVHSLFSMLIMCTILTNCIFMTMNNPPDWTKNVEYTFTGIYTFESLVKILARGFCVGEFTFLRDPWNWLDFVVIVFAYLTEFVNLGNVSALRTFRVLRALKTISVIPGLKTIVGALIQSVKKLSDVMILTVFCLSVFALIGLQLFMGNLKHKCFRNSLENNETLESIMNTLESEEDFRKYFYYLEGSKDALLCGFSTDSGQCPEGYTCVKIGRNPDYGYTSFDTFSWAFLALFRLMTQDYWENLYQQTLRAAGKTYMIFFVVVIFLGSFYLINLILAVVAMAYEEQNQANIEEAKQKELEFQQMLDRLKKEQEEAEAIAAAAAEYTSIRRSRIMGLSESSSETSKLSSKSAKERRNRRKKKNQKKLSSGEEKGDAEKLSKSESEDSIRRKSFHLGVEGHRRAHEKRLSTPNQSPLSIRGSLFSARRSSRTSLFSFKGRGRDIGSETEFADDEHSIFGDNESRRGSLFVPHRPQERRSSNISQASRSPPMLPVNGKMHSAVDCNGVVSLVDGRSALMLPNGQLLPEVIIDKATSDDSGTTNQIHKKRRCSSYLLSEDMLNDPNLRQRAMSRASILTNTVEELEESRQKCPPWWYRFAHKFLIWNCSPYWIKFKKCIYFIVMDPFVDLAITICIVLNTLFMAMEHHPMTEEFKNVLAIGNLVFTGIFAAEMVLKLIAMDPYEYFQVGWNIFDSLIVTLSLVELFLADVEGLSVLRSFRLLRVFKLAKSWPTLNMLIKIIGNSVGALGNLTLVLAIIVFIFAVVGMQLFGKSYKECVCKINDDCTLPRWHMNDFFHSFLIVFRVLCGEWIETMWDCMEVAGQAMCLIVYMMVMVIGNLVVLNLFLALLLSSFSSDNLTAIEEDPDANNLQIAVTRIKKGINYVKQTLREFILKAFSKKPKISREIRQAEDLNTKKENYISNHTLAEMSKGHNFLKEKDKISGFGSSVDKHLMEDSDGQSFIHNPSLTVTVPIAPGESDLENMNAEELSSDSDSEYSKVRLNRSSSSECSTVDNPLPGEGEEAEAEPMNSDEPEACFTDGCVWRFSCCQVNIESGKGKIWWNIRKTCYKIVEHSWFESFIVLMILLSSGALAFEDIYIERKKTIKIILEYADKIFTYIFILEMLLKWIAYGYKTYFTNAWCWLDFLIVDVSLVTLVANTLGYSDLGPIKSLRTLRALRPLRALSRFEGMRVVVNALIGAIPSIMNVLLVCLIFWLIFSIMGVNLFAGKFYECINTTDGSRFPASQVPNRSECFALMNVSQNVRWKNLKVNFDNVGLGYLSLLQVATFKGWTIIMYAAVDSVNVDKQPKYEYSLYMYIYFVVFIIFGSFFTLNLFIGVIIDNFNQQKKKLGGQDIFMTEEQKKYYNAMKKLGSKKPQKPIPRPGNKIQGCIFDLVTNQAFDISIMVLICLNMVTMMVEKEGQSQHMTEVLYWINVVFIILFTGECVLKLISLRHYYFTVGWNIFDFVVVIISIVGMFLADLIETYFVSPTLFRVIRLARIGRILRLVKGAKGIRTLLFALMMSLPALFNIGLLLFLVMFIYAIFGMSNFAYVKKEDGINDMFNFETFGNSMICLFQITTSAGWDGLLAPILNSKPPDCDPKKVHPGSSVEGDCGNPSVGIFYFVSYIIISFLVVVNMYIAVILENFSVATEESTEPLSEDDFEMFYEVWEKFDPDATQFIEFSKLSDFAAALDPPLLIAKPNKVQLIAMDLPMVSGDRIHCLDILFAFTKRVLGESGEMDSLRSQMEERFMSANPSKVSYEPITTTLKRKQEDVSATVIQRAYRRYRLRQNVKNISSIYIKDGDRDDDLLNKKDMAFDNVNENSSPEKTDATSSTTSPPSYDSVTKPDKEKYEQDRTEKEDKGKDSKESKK

For the compound `CC[C@H](C)[C@H](NC(=O)[C@H](CCC(N)=O)NC(=O)[C@H](Cc1ccc(O)cc1)NC(=O)[C@H](CCCCN)NC(=O)[C@@H]1CSSC[C@@H]2NC(=O)[C@H](CCC(N)=O)NC(=O)[C@H](CC(=O)O)NC(=O)[C@H](CC(N)=O)NC(=O)[C@H](CO)NC(=O)[C@@H]3CCCN3C(=O)[C@H](CC(N)=O)NC(=O)[C@@H]3CSSC[C@H](NC(=O)[C@H](C(C)C)NC(=O)[C@H](CC(C)C)NC(=O)[C@H](CCCCN)NC(=O)[C@H](CO)NC(=O)[C@H](CO)NC(=O)[C@H](CCCCN)NC(=O)[C@H](CSSC[C@H](NC(=O)[C@@H](N)CCC(=O)O)C(=O)N[C@@H](CC(C)C)C(=O)N[C@@H](CCC(=O)O)C(=O)N[C@@H]([C@@H](C)CC)C(=O)N[C@@H](Cc4ccccc4)C(=O)N[C@@H](CCCCN)C(=O)N[C@@H](C)C(=O)N3)NC2=O)C(=O)N[C@@H](CO)C(=O)N[C@@H](CCCNC(=N)N)C(=O)N[C@@H](CCCCN)C(=O)N[C@@H]([C@@H](C)O)C(=O)N[C@@H](CCCNC(=N)N)C(=O)N[C@@H](Cc2c[nH]c3ccccc23)C(=O)N1)C(=O)N[C@@H](CCCCN)C(=O)O` [HwTx-IV K^36/CterCOOH], in assay [1], 1330 nM corresponded to half-maximal inhibition (IC50) and the “hNaV1.6 IC50 versus WT” value turned out to be 5.89. Further, in assay [2], the IC50 came out at 29 nM and the “hNaV1.7 IC50 versus WT” value is 2.93. Besides, the hNaV1.7/hNaV1.6 selectivity ratio entry in assay [2] (inverse ratio of the mean IC50 values on hNaV1.7 (CHO) and hNaV1.6 (HEK-293) of Table 1) is recorded as “above 46”.

Consider `CC[C@H](C)[C@H](NC(=O)[C@H](CCC(N)=O)NC(=O)[C@H](Cc1ccc(O)cc1)NC(=O)[C@H](CCCCN)NC(=O)[C@@H]1CSSC[C@@H]2NC(=O)[C@H](CCC(N)=O)NC(=O)[C@H](CC(=O)O)NC(=O)[C@H](CC(N)=O)NC(=O)[C@H](CO)NC(=O)[C@@H]3CCCN3C(=O)[C@H](CC(N)=O)NC(=O)[C@@H]3CSSC[C@H](NC(=O)[C@H](C(C)C)NC(=O)[C@H](CC(C)C)NC(=O)[C@H](CCCCN)NC(=O)[C@H](CO)NC(=O)[C@H](CO)NC(=O)[C@H](CCCCN)NC(=O)[C@H](CSSC[C@H](NC(=O)[C@@H](N)CCC(=O)O)C(=O)N[C@@H](CC(C)C)C(=O)N[C@@H](CCC(=O)O)C(=O)N[C@@H]([C@@H](C)CC)C(=O)N[C@@H](Cc4ccccc4)C(=O)N[C@@H](CCCCN)C(=O)N[C@@H](C)C(=O)N3)NC2=O)C(=O)N[C@@H](CO)C(=O)N[C@@H](C)C(=O)N[C@@H](CCCCN)C(=O)N[C@@H]([C@@H](C)O)C(=O)N[C@@H](CCCNC(=N)N)C(=O)N[C@@H](Cc2c[nH]c3ccccc23)C(=O)N1)C(N)=O` [HwTx-IV R ^26A], for which, in assay [1], half-maximal inhibition (IC50) was put at 614 nM and the “hNaV1.6 IC50 versus WT” value is 2.71. In assay [2], the IC50 came to 112 nM and the “hNaV1.7 IC50 versus WT” value is reported as 11.28.

As for `CC[C@H](C)[C@H](NC(=O)[C@H](CCC(N)=O)NC(=O)[C@H](Cc1ccc(O)cc1)NC(=O)[C@H](CCCCN)NC(=O)[C@@H]1CSSC[C@@H]2NC(=O)[C@H](CCC(N)=O)NC(=O)[C@H](CC(=O)O)NC(=O)[C@H](CC(N)=O)NC(=O)[C@H](CO)NC(=O)[C@@H]3CCCN3C(=O)[C@H](CC(N)=O)NC(=O)[C@@H]3CSSC[C@H](NC(=O)[C@H](C(C)C)NC(=O)[C@H](CC(C)C)NC(=O)[C@H](CCCCN)NC(=O)[C@H](CO)NC(=O)[C@H](CO)NC(=O)[C@H](CCCCN)NC(=O)[C@H](CSSC[C@H](NC(=O)[C@@H](N)CCC(=O)O)C(=O)N[C@@H](CC(C)C)C(=O)N[C@@H](CCC(=O)O)C(=O)N[C@@H]([C@@H](C)CC)C(=O)N[C@@H](Cc4ccccc4)C(=O)N[C@@H](CCCCN)C(=O)N[C@@H](C)C(=O)N3)NC2=O)C(=O)N[C@@H](CO)C(=O)N[C@@H](CCC(N)=O)C(=O)N[C@@H](CCCCN)C(=O)N[C@@H]([C@@H](C)O)C(=O)N[C@@H](CCCNC(=N)N)C(=O)N[C@@H](Cc2c[nH]c3ccccc23)C(=O)N1)C(N)=O` [HwTx-IV R ^26Q], in assay [1], the half-maximal inhibitory concentration (IC50) is more than 1000 nM and the “hNaV1.6 IC50 versus WT” value is recorded as more than 4.4. Moreover, in assay [2], half-maximal inhibition (IC50) was put at 141 nM and the “hNaV1.7 IC50 versus WT” value was found to be 14.28.

By IC50 is commonly meant the point on the concentration scale where inhibition reaches its midpoint. Higher therefore signals a need for much substance.
